The numbers were not newly measured in patent publication US12247090B2, “Enzyme-mediated free radical initiating systems for the production of hydrogels and controlled radical polymerization processes” (Duke University, priority 2021, dated 2025), which cites them from elsewhere.

The test system of the series is rat. To be noted: in vivo, po.

Each structure is given as a SMILES string.

Consider `CC(=O)CC(C)=O` [ACAC, acetylacetone], for which the LD50 is recorded as 55 mg/kg.
